Positions of bridges follow the written chain, without caps; N, C: chain ends. Non-standard residues stand in square brackets, D forms with d. Residues, ends and D or L forms follow the SMILES beside them. Trp(1-Me) = Cn1cc(C[C@H](N)C(=O)O)c2ccccc21; Sar = CNCC(=O)O
Key:
[1] = test system: alternative complement pathway; assay: Ex vivo alternative pathway complement activity (WIESLAB kit) after s.c. dosing in non-human primates; set-up: species or system Cynomolgus monkeys (Macaca fascicularis); conditions: NHP, subcutaneous 1840 nmol/kg, FIG. 1a-f
Description: FIG. 1(a-f): Normalized “ex vivo” activity of the alternative complement pathway over time after administration of a test compound at time 0 to one or two non-human primates. Compounds were given subcutaneously at a dose of 1840 nmol/kg. Complement activity (alternative pathway) was measured using the Wieslab kit. Activity was normalized using the predose (0) sample (set to 100%) and the negative control included in the kit. Normalized activity or average normalized activity for both animals and standard deviation is shown.
Healthy male Cynomolgus monkeys (Macaca fascicularis) received single subcutaneous administrations of each test substance. Compounds were formulated in 20 mM phosphate adjusted with NaOH to pH 7.5 and mannitol for isotonicity and dosed at 1840 nmol/kg. Blood was collected from a femoral vein from each animal at the following times: Pre-dose, 1, 2, 4, 8, 24, 48, 72, 96 and 120 h (10 sampling times). Blood was collected into serum separation tubes and allowed to clot at room temperature. The tubes were centrifuged and resulting serum was aliquoted and snap-frozen over dry-ice and stored at nominally −80° C. until analysis. All NHP studies were performed in accordance with animal welfare laws and regulations, including approval of the study by a local ethical review process.
Serum isolated from non-human primates at specific time points after dosing were analyzed for alternative pathway complement activity using the Complement system Alternative Pathway WIESLAB® kit from Svar Life Science (previously Euro diagnostic AB, Sweden) following the manufacturer's protocol. Briefly, serum samples or controls were diluted in buffer and incubated in microtitre strips coated with specific activators of the alternative pathway. The wells were washed and formed C5b-9 was detected using included colorimetric reagents. Absorbance at 405 nm was measured. The percent activity of the alternative complement pathway was calculated for each animal and timepoint relative to the pre-dose activity (0 hours) of the individual animal with subtraction of the negative control. […]

[2] = Solubility test at 10 mg/mL (visual inspection and light scattering); format: physicochemical; conditions: for Solubility, Condition 1: Acetate pH 4; for Solubility, Condition 2: Acetate pH 5; for Solubility, Condition 3: Phosphate pH 6; for Solubility, Condition 4: Phosphate pH 7; for Solubility, Condition 5: Phosphate pH 7.5
[3] = test system: classical complement pathway; assay: In vitro haemolysis assay (inhibition of classical complement pathway); format: cell-based, human; conditions: human serum, sensitized sheep red blood cells; Table 3, given as upper bounds; read-out: IC50, inhibition of hemolysis
In short: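 Compound dilutions preincubated 15 min at room temperature with diluted human serum (titrated per batch for 70-90% maximal haemolysis), then antibody-sensitized sheep RBC (10^7/well) added for 30 min at 37 °C in Tris/casein buffer, pH 7.4. Stopped with EDTA; haemolysis read at 405 nm; IC50 by 4PL fit.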

[4] = target: T1, Human C3 (Complement tech cat #A113c) (human, UniProt P01024 23-1663); assay: cell-based or functional assay
T1 sequence (P01024 23-1663 limits assumed): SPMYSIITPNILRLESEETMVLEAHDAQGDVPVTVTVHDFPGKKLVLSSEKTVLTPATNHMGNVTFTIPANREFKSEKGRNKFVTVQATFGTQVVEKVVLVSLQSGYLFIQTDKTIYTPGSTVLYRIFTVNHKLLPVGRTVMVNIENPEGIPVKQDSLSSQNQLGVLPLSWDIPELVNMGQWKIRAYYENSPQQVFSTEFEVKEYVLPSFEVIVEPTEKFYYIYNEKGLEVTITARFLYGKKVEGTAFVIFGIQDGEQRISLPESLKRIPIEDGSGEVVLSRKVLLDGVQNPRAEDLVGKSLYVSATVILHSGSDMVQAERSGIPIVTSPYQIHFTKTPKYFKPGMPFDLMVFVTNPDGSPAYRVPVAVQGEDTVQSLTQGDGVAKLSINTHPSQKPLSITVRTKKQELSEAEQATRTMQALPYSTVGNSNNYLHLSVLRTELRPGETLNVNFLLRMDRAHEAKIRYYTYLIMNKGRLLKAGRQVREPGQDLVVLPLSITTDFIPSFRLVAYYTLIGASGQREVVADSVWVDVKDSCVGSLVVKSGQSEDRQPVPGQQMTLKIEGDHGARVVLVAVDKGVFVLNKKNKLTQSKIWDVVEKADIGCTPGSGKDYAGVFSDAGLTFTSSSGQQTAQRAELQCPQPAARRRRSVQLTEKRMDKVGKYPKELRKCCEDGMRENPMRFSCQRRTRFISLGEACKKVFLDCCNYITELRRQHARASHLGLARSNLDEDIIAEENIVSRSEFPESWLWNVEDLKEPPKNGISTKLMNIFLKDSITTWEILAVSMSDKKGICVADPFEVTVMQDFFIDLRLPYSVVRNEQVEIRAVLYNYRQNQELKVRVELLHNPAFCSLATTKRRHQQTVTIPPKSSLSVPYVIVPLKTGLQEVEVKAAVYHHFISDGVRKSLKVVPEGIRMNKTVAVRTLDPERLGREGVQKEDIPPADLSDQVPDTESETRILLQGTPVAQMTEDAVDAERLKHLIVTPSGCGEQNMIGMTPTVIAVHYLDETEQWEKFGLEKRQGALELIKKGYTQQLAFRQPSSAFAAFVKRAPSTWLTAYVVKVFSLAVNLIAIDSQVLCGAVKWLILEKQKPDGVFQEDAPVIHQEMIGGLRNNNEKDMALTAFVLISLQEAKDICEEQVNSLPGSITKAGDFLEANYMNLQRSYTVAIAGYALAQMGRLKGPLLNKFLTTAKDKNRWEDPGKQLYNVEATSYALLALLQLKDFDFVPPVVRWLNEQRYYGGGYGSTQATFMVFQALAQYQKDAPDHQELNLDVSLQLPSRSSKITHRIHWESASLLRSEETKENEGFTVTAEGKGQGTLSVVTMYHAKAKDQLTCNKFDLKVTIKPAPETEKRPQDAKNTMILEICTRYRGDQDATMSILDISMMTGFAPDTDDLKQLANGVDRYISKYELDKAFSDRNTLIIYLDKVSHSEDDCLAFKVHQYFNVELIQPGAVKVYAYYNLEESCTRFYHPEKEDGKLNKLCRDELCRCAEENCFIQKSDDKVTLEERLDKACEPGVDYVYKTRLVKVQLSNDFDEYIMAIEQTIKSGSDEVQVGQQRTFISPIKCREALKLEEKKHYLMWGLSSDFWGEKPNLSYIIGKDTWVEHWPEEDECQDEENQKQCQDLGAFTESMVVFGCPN

[5] = target: T1, Human C3 (Complement tech cat #A113c); assay: cell-based or functional assay; remark: listed apart in the source

CC[C@H](C)[C@@H]1NC(=O)[C@@H](NC(=O)[C@H](Cc2ccccc2)NC(C)=O)CSSC[C@@H](C(=O)N[C@H](C(=O)NCC(=O)N[C@@H](C)C(=O)N[C@@H](CCC(=O)O)C(=O)N[C@@H](CO)C(N)=O)[C@@H](C)O)NC(=O)[C@H](CCCNC(=N)N)NC(=O)[C@H](Cc2c[nH]cn2)NC(=O)[C@H](CCC(=O)O)NC(=O)CNC(=O)[C@H](Cc2c[nH]c3ccccc23)NC(=O)[C@H](CC(=O)O)NC(=O)[C@H](CCC(N)=O)NC(=O)[C@H](Cc2cn(C)c3ccccc23)NC1=O [Compound 61] (Ac-FCI[Trp(1-Me)]QDWGEHRCTGAES-NH2; disulfide 2-12)
duration of action (alternative pathway complement activity) [1]: relatively short duration of action | Solubility, Condition 1 [2]: − (“−” denotes lack of solubility at the given condition, as UV absorbance at 340 nm exceeds 0.1 AU and/or it is visibly turbid or contains particles) | Solubility, Condition 2 [2]: − (“−” denotes lack of solubility at the given condition, as UV absorbance at 340 nm exceeds 0.1 AU and/or it is visibly turbid or contains particles) | Solubility, Condition 3 [2]: + (“+” denotes solubility at the given condition, as determined by UV absorbance being less than 0.1 AU at 340 nm and the sample being clear when manually inspected) | Solubility, Condition 4 [2]: + (“+” denotes solubility at the given condition, as determined by UV absorbance being less than 0.1 AU at 340 nm and the sample being clear when manually inspected) | Solubility, Condition 5 [2]: + (“+” denotes solubility at the given condition, as determined by UV absorbance being less than 0.1 AU at 340 nm and the sample being clear when manually inspected) | IC50 [3]: < 100 nM

CC[C@H](C)[C@@H]1NC(=O)[C@@H](NC(=O)[C@H](Cc2ccc(O)cc2)NC(=O)[C@H](C)NC(=O)[C@H](CO)NC(=O)CNC(=O)[C@H](CCC(=O)O)NC(C)=O)CSSC[C@@H](C(=O)N(C)CC(=O)N[C@@H](CCC(=O)O)C(N)=O)NC(=O)[C@H](CCCNC(=N)N)NC(=O)[C@H](Cc2c[nH]cn2)NC(=O)[C@H](CCC(=O)O)NC(=O)CNC(=O)[C@H](Cc2c[nH]c3ccccc23)NC(=O)[C@H](CC(=O)O)NC(=O)[C@H](CCC(N)=O)NC(=O)[C@H](Cc2cn(C)c3ccccc23)NC1=O [Compound 54] (Ac-EGSAYCI[Trp(1-Me)]QDWGEHRC[Sar]E-NH2; disulfide 6-16)
duration of action (alternative pathway complement activity) [1]: relatively short duration of action | Solubility, Condition 1 [2]: − (“−” denotes lack of solubility at the given condition, as UV absorbance at 340 nm exceeds 0.1 AU and/or it is visibly turbid or contains particles) | Solubility, Condition 2 [2]: − (“−” denotes lack of solubility at the given condition, as UV absorbance at 340 nm exceeds 0.1 AU and/or it is visibly turbid or contains particles) | Solubility, Condition 3 [2]: + (“+” denotes solubility at the given condition, as determined by UV absorbance being less than 0.1 AU at 340 nm and the sample being clear when manually inspected) | Solubility, Condition 4 [2]: + (“+” denotes solubility at the given condition, as determined by UV absorbance being less than 0.1 AU at 340 nm and the sample being clear when manually inspected) | Solubility, Condition 5 [2]: + (“+” denotes solubility at the given condition, as determined by UV absorbance being less than 0.1 AU at 340 nm and the sample being clear when manually inspected) | IC50 [3]: < 100 nM

B1: Compound 1 (peptide)
peptide: Ac-ICIWQDWGAHRCT-NH2
modifications: disulfide 2-12
SMILES: CC[C@H](C)[C@H](NC(C)=O)C(=O)N[C@H]1CSSC[C@@H](C(=O)N[C@H](C(N)=O)[C@@H](C)O)NC(=O)[C@H](CCCNC(=N)N)NC(=O)[C@H](Cc2c[nH]cn2)NC(=O)[C@H](C)NC(=O)CNC(=O)[C@H](Cc2c[nH]c3ccccc23)NC(=O)[C@H](CC(=O)O)NC(=O)[C@H](CCC(N)=O)NC(=O)[C@H](Cc2c[nH]c3ccccc23)NC(=O)[C@H]([C@@H](C)CC)NC1=O
inhibition of hemolysis IC50 [4]: < 250 nM | CP hemolysis IC50 [5]: 150 nM

Source: patent publication US11965039B2, “Compstatin analogues and their medical uses” (priority 2018, dated 2024)
